Assays:
[1] = target: PI3K (p110α/p85α) (Homo sapiens (Human), UniProt P42336); assay: PI3K alpha activity assay (ADP Hunter Plus); assay type: biochemical; settings: 50 μM ATP, 30 μM PIP2; read-out: PI3Kα IC50
Procedure: The kinase activity was measured by using the commercial ADP Hunter™ Plus assay available from DiscoveRx (#33-016), which is a homogeneous assay to measure the accumulation of ADP, a universal product of kinase activity. […] The reaction was carried out for 1 hour at 25° C. Reagent A and B were sequentially added to the wells and plates were incubated for 30 min at 37° C. Fluorescence counts were read in a Victor instrument (Perkin Elmer) with the recommended settings (544 and 580 nm as excitation and emission wavelengths, respectively).

[2] = target: mTOR (Homo sapiens (Human), UniProt P42345); assay: mTOR activity assay (LanthaScreen); assay type: biochemical
Procedure: The enzymatic mTOR activity was measured using a LanthaScreen™ kinase activity assay (Invitrogen). The enzyme was purchased from Invitrogen (PV4754), as well as the GFP-labelled substrate (4EBP1-GFP; PV4759) and the Tb-antip4EBP1(pThr46) antibody (PV4757). The assay was performed in 50 Mm HEPES buffer, pH 7.5, containing 1.5 mM MnCl2, 10 mM MgCl2, 1 mM EGTA, 2.5 mM DTT and 0.01% Tween-20. The concentration of the assay components were the following: 0.24 nM mTOR kinase, 400 nM 4EBP1-GFP, […] and serial dilutions of the compound (inhibitor) to be evaluated. After 1 h incubation at room temperature, 20 mM EDTA was used to stop the reaction and terbium-labelled antibody (4 nM) added to detect phosphorylated product. The antibody associates with the phosphorylated product resulting in an increased TR-FRET value. The TR-FRET value (a dimensionless number) was calculated as the ratio of the acceptor signal (GFP, emission at 520 nm) to the donor signal (terbium, emission at 495 nm).

[3] = target: DNA-PK (Homo sapiens (Human), UniProt P78527); assay: DNAPK activity assay (ADP Hunter Plus); assay type: biochemical; settings: 75 μM ATP
Procedure: The kinase activity was measured by using the commercial ADP Hunter™ Plus assay available from DiscoveRx (#90-0083), which is a homogeneous assay to measure the accumulation of ADP, a universal product of kinase activity. The enzyme, DNA-PK was purchased from Promega (#V5811). The assay was done following the manufacturer recommendations with slight modifications: Mainly the kinase buffer was replace by 15 mM HEPES, pH 7.5, 10 mM MgCl2, 20 mM NaCl, 1 mM EGTA, 0.1 mg/mL BGG, 0.02% Tween 20. The DNA-PK was assayed in a titration experiment to determine the optimal protein concentration for the inhibition assay. To calculate the […] of the Compounds, serial 1:3 dilutions of the compounds were added to the enzyme at a fixed concentration (2 U/μL). The enzyme was preincubated with the inhibitor and 200 μM DNA substrate and then ATP was added to a final 75 μM concentration. Reaction was carried out for 1 hour at 37° C. Reagent A and B were sequentially added to the wells and plates were incubated for 30 min at RT. Fluorescence counts were read in a EnVision instrument (Perkin Elmer) with the recommended settings (550 and 590 nm as excitation and emission wavelengths, respectively).

[4] = target: ATR (Homo sapiens (Human), UniProt Q13535); assay: Cellular ATR inhibition, western blot of CHK1(S345) phosphorylation in hydroxyurea treated cells; assay type: cell-based; settings: HT29 cells
Procedure: In addition to the selective system described above, Example compounds presented here were screened for their ability to inhibit intracellular ATR using a western blot assay to detect phosphorylation of the ATR substrate CHK1(S345) in hydroxyurea treated cells. HT29 cells are plated at 500,000 cells per well in 6-well plates in RPMI media (Sigma R6504) supplemented with 10% foetal bovine serum (Sigma F7524), Penicillin/Streptomycin solution diluted 1:100 (Gibco 15070-063), and fungizone (Gibco, 15290-018), and allowed to adhere overnight at 37° C. in 5% CO2. Compounds are then added to the cell media from a final concentration of 10 μM in 3-fold serial dilutions and the cells are incubated at 37° C. in 5% CO2. After 15 min, hydroxyurea (Sigma H8627) is added to a final concentration of 2.5 mM. After 30 min of treatment with hydroxyurea, the cells are washed in PBS, lysed adding 50 μl of in protein lysis buffer (50 mM Tris pH 7.5, 150 mM NaCl, 1% IGEPAL CO-630 (Sigma, Ref. 542334-100G-A), Phospho Stop (Roche, Ref. 04906837001) and Complete Mini EDTA free (Roche, Ref. 11836170001)). The protein content of the lysates was determined by the modified method of Bradford (Sigma, Ref. B6916). The proteins were resolved by SDS-PAGE and transferred to nitrocellulose membrane (VWR International Eurolab, Ref. 732-4007). The membranes were incubated overnight at 4° C. with antibodies specific for total CHK1 (Santa Cruz Biotechnology, sc-8404), phosphoserine-345 CHK1 (Cell Signaling Technology #2348) they were washed and then incubated with IRDye800 conjugated anti-mouse (Pierce/Cultek, 35521) and Alexa Fluor 680 goat anti-rabbit IgG secondary antibodies (Invitrogen, A21076). The bands were visualized and quantified using an Odyssey infrared imaging system (Li-Cor Biosciences). The percentage of phosphorylated CHK1 vs total CHK1 in cells treated with hydroxyurea was taken as hundred percent of phosphorylation. The percentage of CHK1 phosphorylation is finally plotted against concentration for each compound and EC50s for intracellular ATR inhibition are calculated using ActivityBase from IDBS.

Sequence of ATR (Q13535 whole entry): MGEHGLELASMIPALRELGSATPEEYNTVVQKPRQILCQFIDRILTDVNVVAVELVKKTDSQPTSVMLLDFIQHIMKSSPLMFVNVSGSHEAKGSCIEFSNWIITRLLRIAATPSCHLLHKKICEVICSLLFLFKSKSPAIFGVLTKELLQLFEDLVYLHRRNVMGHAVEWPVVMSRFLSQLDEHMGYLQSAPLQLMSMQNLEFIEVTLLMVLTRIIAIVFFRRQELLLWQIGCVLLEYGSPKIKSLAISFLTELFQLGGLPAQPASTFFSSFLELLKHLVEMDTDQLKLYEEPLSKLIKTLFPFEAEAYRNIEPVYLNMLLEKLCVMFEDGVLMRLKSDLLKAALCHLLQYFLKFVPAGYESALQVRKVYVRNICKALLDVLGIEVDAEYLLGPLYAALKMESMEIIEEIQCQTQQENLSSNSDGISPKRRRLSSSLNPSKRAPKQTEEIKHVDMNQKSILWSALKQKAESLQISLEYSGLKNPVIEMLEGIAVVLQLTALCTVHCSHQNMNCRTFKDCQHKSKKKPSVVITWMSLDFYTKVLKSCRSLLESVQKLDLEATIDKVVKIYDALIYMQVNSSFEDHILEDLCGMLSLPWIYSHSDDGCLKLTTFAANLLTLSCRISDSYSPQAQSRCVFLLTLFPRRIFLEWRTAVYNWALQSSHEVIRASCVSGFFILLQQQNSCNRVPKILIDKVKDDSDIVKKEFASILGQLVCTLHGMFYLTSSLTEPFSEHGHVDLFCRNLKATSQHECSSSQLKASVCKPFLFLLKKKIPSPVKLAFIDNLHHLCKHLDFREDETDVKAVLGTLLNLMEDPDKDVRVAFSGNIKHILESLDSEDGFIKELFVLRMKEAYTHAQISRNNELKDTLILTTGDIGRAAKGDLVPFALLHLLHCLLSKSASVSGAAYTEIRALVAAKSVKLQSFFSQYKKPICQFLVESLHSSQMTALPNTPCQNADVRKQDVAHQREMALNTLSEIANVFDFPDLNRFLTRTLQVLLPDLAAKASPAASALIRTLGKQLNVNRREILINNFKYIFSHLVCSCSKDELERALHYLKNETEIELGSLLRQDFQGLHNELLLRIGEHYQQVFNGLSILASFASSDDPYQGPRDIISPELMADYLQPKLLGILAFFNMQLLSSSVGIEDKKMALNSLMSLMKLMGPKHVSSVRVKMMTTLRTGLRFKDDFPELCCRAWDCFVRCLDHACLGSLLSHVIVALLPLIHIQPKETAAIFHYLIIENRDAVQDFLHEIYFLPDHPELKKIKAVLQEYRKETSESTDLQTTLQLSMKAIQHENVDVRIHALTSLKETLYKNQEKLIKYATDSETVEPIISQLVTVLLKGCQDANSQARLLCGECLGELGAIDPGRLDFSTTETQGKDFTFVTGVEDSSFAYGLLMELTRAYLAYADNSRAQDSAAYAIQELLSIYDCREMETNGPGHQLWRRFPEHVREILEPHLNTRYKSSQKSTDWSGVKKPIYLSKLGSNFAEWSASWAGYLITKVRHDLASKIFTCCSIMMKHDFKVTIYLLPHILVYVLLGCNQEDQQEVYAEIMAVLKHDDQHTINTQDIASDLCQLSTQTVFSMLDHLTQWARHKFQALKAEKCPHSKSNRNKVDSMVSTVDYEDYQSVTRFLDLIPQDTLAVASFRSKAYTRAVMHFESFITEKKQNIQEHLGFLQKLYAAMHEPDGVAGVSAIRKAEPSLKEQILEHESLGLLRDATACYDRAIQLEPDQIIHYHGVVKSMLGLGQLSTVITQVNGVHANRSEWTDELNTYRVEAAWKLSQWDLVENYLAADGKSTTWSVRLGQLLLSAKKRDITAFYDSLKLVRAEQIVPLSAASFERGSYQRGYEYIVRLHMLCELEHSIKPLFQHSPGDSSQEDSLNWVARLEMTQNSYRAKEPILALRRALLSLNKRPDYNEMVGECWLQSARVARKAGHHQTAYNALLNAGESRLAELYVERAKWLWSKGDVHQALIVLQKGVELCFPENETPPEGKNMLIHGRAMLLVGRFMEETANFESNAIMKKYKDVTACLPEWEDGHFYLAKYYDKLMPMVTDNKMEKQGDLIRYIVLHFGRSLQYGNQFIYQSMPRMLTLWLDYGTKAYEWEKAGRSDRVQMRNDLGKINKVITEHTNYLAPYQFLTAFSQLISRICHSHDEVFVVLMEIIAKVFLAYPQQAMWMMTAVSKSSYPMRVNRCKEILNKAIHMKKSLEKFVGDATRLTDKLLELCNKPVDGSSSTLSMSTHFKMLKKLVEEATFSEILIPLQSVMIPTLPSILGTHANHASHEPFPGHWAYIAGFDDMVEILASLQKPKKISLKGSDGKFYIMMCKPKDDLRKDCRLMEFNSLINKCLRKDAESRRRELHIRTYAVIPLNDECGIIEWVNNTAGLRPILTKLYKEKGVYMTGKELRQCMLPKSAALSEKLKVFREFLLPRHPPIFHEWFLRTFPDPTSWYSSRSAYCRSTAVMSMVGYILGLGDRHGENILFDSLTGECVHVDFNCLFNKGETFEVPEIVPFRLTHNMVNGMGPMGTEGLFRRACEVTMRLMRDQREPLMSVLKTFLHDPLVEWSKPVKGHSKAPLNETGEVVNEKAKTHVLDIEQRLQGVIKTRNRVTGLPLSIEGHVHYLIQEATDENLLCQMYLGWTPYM
Sequence of mTOR (P42345 1360-2549): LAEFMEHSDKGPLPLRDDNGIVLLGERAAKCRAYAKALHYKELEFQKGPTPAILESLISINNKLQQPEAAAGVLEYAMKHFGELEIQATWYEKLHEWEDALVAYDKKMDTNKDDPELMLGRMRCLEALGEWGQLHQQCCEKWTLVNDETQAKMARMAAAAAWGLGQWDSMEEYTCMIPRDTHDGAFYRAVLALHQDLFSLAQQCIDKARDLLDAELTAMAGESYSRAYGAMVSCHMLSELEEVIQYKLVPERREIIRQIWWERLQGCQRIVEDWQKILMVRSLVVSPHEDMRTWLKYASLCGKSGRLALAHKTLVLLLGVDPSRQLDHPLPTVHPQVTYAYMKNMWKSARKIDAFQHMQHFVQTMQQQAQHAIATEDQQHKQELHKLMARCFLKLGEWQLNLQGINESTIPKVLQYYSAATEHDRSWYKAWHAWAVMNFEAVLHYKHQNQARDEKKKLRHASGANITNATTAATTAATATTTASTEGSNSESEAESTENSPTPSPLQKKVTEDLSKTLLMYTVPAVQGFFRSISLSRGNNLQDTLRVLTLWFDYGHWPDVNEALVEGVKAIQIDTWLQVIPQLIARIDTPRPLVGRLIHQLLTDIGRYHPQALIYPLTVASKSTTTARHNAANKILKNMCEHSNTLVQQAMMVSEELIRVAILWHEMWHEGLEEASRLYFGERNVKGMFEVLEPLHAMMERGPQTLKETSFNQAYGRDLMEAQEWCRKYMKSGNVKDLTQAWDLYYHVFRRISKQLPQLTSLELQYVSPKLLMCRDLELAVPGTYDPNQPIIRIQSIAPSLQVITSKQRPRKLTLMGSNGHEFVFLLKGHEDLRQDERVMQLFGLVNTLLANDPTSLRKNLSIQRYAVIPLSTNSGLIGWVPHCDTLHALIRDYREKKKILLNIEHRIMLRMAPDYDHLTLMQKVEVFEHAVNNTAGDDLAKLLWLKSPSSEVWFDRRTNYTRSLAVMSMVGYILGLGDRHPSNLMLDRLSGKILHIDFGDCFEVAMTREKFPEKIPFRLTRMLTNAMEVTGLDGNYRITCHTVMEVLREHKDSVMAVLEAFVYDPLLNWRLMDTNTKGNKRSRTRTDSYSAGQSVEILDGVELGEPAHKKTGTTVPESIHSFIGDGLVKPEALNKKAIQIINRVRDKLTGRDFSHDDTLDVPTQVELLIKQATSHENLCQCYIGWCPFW

Row | SMILES | IC50 [1] | IC50 [2] | IC50 [3] | EC50 ([4]; hydroxyurea 2.5 mM) | EC50 ([4]; hydroxyurea […])
1 | Cc1cc2c(-c3nc4c(c(C5(S(C)(=O)=O)CC5)n3)OC[C@@H]3COCCN43)cccc2[nH]1 [Example 109] | 5.69 µM | 0.224 µM | 10 µM | 0.1 to 1 µM | 
2 | CNc1nc2ccccc2n1-c1nc2c(c(C(C)(C)S(C)(=O)=O)n1)OCC[C@@H]1COCCN21 [Example 62] | 16.2 µM | 6.6 µM | 10 µM | 0.1 to 1 µM | 
3 | COc1cc(-c2nc3c(c(C(C)(C)O)n2)OC[C@@H]2COCCN32)c2cc[nH]c2c1 [Example 46] | 0.48 µM | 0.038 µM | 2.82 µM | 0.1 to 1 µM | 
4 | CNc1nc2ccc(C#N)cc2n1-c1nc2c(c(C(C)(C)S(C)(=O)=O)n1)OC[C@@H]1COCCN21 [Example 114] | 50 µM | 10 µM | 10 µM |  | > 1 µM
5 | COc1cc(-c2nc3c(c(C(C)(C)S(C)(=O)=O)n2)OC[C@@H]2COCCN32)c2cc[nH]c2c1 [Example 72] | 0.82 µM | 0.0453 µM | 1.6 µM | 0.1 to 1 µM | 
6 | CNc1nc2cc(Cl)ccc2n1-c1nc2c(c(C(C)(C)S(C)(=O)=O)n1)OC[C@@H]1COCCN21 [Example 80] | 13.1 µM | 0.501 µM | 10 µM |  | > 1 µM
7 | CC(C)(c1nc(-c2cccc3[nH]ccc23)nc2c1OC[C@@H]1COCCN21)S(=O)(=O)C1CC1 [Example 61] | 3.22 µM | 0.228 µM | 10 µM | 0.1 to 1 µM | 
8 | CS(=O)(=O)C1(c2nc(-c3cc(F)cc4[nH]ccc34)nc3c2OC[C@@H]2COCCN32)CCOCC1 [Example 28] | 4.7 µM | 0.785 µM | 25 µM | < 0.1 µM | 
9 | CS(=O)(=O)C1(c2nc(-c3ccc(F)c4[nH]ccc34)nc3c2OC[C@@H]2COCCN32)CC1 [Example 110] | 50 µM | 10 µM | 10 µM | > 1 µM | 
10 | CC(C)(c1nc(-c2cc(C(F)(F)F)cc3[nH]ccc23)nc2c1OC[C@@H]1COCCN21)S(C)(=O)=O [Example 101] | 12.6 µM | 0.227 µM | 10 µM | 0.1 to 1 µM | 
11 | CC(C)(c1nc(-c2cccc3[nH]ccc23)nc2c1OC[C@H]1COCCN21)S(C)(=O)=O [Example 15] | 1.1 µM | 0.851 µM | 2.86 µM | 0.1 to 1 µM | 
12 | CNc1nc2ccc(Cl)cc2n1-c1nc2c(c(C(C)(C)S(C)(=O)=O)n1)OC[C@@H]1COCCN21 [Example 81] | 50 µM | 5.55 µM | 10 µM |  | > 1 µM
13 | CC(C)(c1nc(-n2c(N)nc3ccccc32)nc2c1OC[C@@H]1COCCN21)S(C)(=O)=O [Example 70] | 0.87 µM | 0.226 µM | 0.741 µM |  | 0.1 to 1 µM
14 | CNc1nc2ccc(Cl)cc2n1-c1nc2c(c(C3(S(C)(=O)=O)CC3)n1)OC[C@@H]1COCCN21 [Example 87] | 50 µM | 10 µM | 0.21 µM |  | > 1 µM
15 | CS(=O)(=O)C1(c2nc(-c3cccc4[nH]ccc34)nc3c2OCC[C@H]2COCCN32)CCOCC1 [Example 23] | 50 µM | 10 µM | 6.37 µM | 0.1 to 1 µM | 
16 | CS(=O)(=O)C1(c2nc(-c3cc(C(F)(F)F)cc4[nH]ccc34)nc3c2OC[C@@H]2COCCN32)CCOCC1 [Example 105] | 28.9 µM | 1.99 µM | 10 µM | 0.1 to 1 µM | 
17 | CS(=O)(=O)C1(c2nc(-c3cc(F)cc4[nH]ccc34)nc3c2OC[C@@H]2COCCN32)CCC1 [Example 77] | 5.36 µM | > 10 µM | 10 µM | < 0.1 µM | 
18 | CC(C)(O)c1nc(-c2cccc3[nH]ccc23)nc2c1OC[C@@H]1COCCN21 [Example 44] | 1.18 µM | 0.044 µM | 3.06 µM | 0.1 to 1 µM | 
19 | CNc1nc2ccc(F)cc2n1-c1nc2c(c(C3(S(C)(=O)=O)CCC3)n1)OC[C@@H]1COCCN21 [Example 97] | 50 µM | 6.8 µM | 6.8 µM |  | 0.1 to 1 µM
20 | CS(=O)(=O)C1(c2nc(-c3cccc4[nH]ccc34)nc3c2OC[C@@H]2COCCN32)CC1 [Example 6] | 4.5 µM | 0.558 µM | 4.52 µM | 0.1 to 1 µM | 
21 | CNc1nc2cc(F)ccc2n1-c1nc2c(c(C(C)(C)S(C)(=O)=O)n1)OC[C@@H]1COCCN21 [Example 82] | 5.6 µM | 1.59 µM | 10 µM |  | 0.1 to 1 µM
22 | CS(=O)(=O)C1(c2nc(-c3cc(C(F)(F)F)cc4[nH]ccc34)nc3c2OC[C@@H]2COCCN32)CC1 [Example 108] | 15.4 µM | 0.579 µM | 1.75 µM | 0.1 to 1 µM | 
23 | CNc1nc2ccccc2n1-c1nc2c(c(C3(S(C)(=O)=O)CC3)n1)OC[C@@H]1COCCN21 [Example 66] | 7.17 µM | 0.854 µM | 2.41 µM | 0.1 to 1 µM | 
24 | COc1cc(-c2nc3c(c(C4(S(C)(=O)=O)CCOCC4)n2)OC[C@@H]2COCCN32)c2cc[nH]c2c1 [Example 29] | 3.8 µM | 0.435 µM | 25 µM | < 0.1 µM | 
